In the CheMixHub viscosity set:
“And” between values parts separate entries of the source, which are not always exact repeats. Identical values can stand only once.

COC(=O)OC
viscosity
Settings | 293.15 K | 298.15 K | 303.15 K | 308.15 K | 313.15 K | 318.15 K | 323.15 K
100 kPa | 0.62 mPa·s | 0.58 mPa·s | 0.5 mPa·s | 0.47 mPa·s | 0.45 mPa·s and 0.489 mPa·s | 0.43 mPa·s and 0.462 mPa·s | 0.38 mPa·s and 0.437 mPa·s
101 kPa | 0.624 mPa·s | 0.58 mPa·s | 0.55 mPa·s and 0.55 mPa·s | 0.49 mPa·s and 0.519 mPa·s | 0.45 mPa·s and 0.491 mPa·s | 0.4 mPa·s and 0.465 mPa·s | 0.442 mPa·s
101.3 kPa | 0.628 mPa·s | – | 0.553 mPa·s | 0.524 mPa·s | 0.496 mPa·s | – | –
101.33 kPa | – | – | 0.503 mPa·s | 0.474 mPa·s | – | – | –

COCCOCCOC
Settings | viscosity
298.15 K, 101 kPa | 0.983 mPa·s and 0.983 mPa·s and 0.996 mPa·s
298.15 K, 101.32 kPa | 0.989 mPa·s
301.15 K, 100 kPa | 1.2 mPa·s and 1.3 mPa·s and 1.4 mPa·s
303.15 K, 101 kPa | 0.923 mPa·s
303.15 K, 101.33 kPa | 0.904 mPa·s
308.15 K, 101 kPa | 0.839 mPa·s and 0.839 mPa·s and 0.868 mPa·s
318.15 K, 101 kPa | 0.721 mPa·s and 0.721 mPa·s
318.15 K, 101.33 kPa | 0.728 mPa·s (4×) and 0.725 mPa·s and 0.728 mPa·s

ClC(Cl)C(Cl)Cl
viscosity
Settings | 298.15 K | 303 K | 303.15 K | 313.15 K | 323.15 K
101 kPa | 1.632 mPa·s | – | 1.455 mPa·s and 1.521 mPa·s | – | –
101.3 kPa | – | – | 1.484 mPa·s | – | –
101.32 kPa | – | – | 1.45 mPa·s and 1.455 mPa·s | 1.367 mPa·s | 1.18 mPa·s
101.33 kPa | 1.581 mPa·s | 1.381 mPa·s | 1.455 mPa·s | – | 1.075 mPa·s

N#CCCO
Settings | viscosity [mPa·s]
298 K, 101 kPa | 3.571

NCCCN
viscosity
Settings | 293.15 K | 298.15 K | 303.15 K | 308.15 K | 313.15 K | 318.15 K | 323.15 K
100 kPa | 1.965 mPa·s and 1.96 mPa·s | 1.769 mPa·s and 1.74 mPa·s | 1.506 mPa·s and 1.57 mPa·s | 1.465 mPa·s and 1.39 mPa·s | 1.259 mPa·s and 1.26 mPa·s | 1.181 mPa·s and 1.07 mPa·s | –
101 kPa | – | – | 1.608 mPa·s and 1.594 mPa·s | 1.445 mPa·s and 1.423 mPa·s | 1.306 mPa·s and 1.297 mPa·s | 1.191 mPa·s and 1.181 mPa·s | 1.09 mPa·s and 1.07 mPa·s
101.3 kPa | 2.03 mPa·s | 1.83 mPa·s | 1.62 mPa·s | 1.42 mPa·s | 1.23 mPa·s | 1.13 mPa·s | –
101.33 kPa | 1.93 mPa·s | 1.67 mPa·s | 1.52 mPa·s and 1.594 mPa·s | 1.37 mPa·s and 1.423 mPa·s | 1.22 mPa·s and 1.297 mPa·s | 1.11 mPa·s and 1.181 mPa·s | 1.07 mPa·s

OC(C(F)(F)F)C(F)(F)F
101 kPa
Settings | viscosity
298.15 K | 1.579 mPa·s and 1.619 mPa·s
303.15 K | 1.361 mPa·s
313.15 K | 0.989 mPa·s and 1 mPa·s
323.15 K | 0.765 mPa·s and 0.788 mPa·s

Oc1ccccc1
Settings | viscosity
293.15 K, 101 kPa | 11.04 mPa·s and 11.04 mPa·s and 11.04 mPa·s
293.2 K, 101 kPa | 11.04 mPa·s
293.25 K, 101 kPa | 11.04 mPa·s and 11.04 mPa·s
298 K, 101.3 kPa | 9.41 mPa·s
298.15 K, 101 kPa | 8.945 mPa·s
302.95 K, 101 kPa | 7.09 mPa·s and 7.1 mPa·s
303 K, 101.3 kPa | 7.553 mPa·s
303.05 K, 101 kPa | 7.09 mPa·s
303.1 K, 101 kPa | 7 mPa·s
303.15 K, 101.33 kPa | 7 mPa·s
308 K, 101.3 kPa | 6.106 mPa·s
308.1 K, 101 kPa | 5.55 mPa·s
308.15 K, 101 kPa | 6.032 mPa·s and 4.649 mPa·s
308.15 K, 101.33 kPa | 5.969 mPa·s
313 K, 101.3 kPa | 4.971 mPa·s
313.05 K, 101 kPa | 4.79 mPa·s
313.25 K, 101 kPa | 4.74 mPa·s
313.35 K, 101 kPa | 4.74 mPa·s
318 K, 101.3 kPa | 4.056 mPa·s
322.95 K, 101 kPa | 3.28 mPa·s
323.1 K, 101 kPa | 3.2 mPa·s and 3.2 mPa·s
323.15 K, 101.33 kPa | 3.2 mPa·s and 3.432 mPa·s
